Measured values from ChEMBL document CHEMBL1135763, “Discovery of aminothiazole inhibitors of cyclin-dependent kinase 2: synthesis, X-ray crystallographic analysis, and biological activities” (J Med Chem, 2002).

Experiments:
[1] = Cmax value at a dose of 10 mg/kg intravenous administration in mice.; assay type: ADME, organism-based; design: dose 10 mg/kg, route intravenous; conditions: mouse, in vivo
Mus musculus [2] = organism: Mus musculus; assay: Percent of serum binding in mouse; assay type: functional
[3] = At a dose 50 mg/kg (114 umol/kg) was administered intraperitoneally to mice and was evaluated for Cmax; assay type: ADME, organism-based; design: dose 50 mg/kg, route intraperitoneal; conditions: mouse, in vivo, ip
Mus musculus [4] = organism: Mus musculus; assay: Metabolic rate in mouse; assay type: ADME
A2780 [5] = assay: […] antitumor activity against A2780 human ovarian carcinoma at 7.5 mg/kg i.p. /qd x7; assay type: functional; conditions: route intraperitoneal
[6] = biological target: Protein kinase C delta type (Homo sapiens, UniProt Q05655); assay: Inhibition of Protein kinase C delta
[7] = Half life at a dose of 10 mg/kg peroral administration in mice.; assay type: ADME, organism-based; design: dose 10 mg/kg, route oral; conditions: mouse, in vivo, po
[8] = biological target: Cyclin-dependent kinase 4/cyclin D1 (Homo sapiens, UniProt P11802); assay: Inhibitory activity against baculovirus expressed Cyclin dependent kinase 4-cyclinD1; assay type: protein-complex assay
[9] = biological target: Protein kinase C alpha type (Homo sapiens, UniProt P17252); assay: Inhibition of Protein kinase C alpha
[10] = biological target: Tyrosine-protein kinase ZAP-70 (Homo sapiens, UniProt P43403); assay: Inhibition of Zeta-chain (TCR) associated protein kinase 70 kDa (ZAP70)
Mus musculus [11] = assay: AUC total value at a dose of 10 mg/kg peroral administration in mice.; assay type: ADME, organism-based, Plasma; design: dose 10 mg/kg, route oral; conditions: in vivo, po
Mus musculus [12] = assay: (§1) At a dose 50 mg/kg (114 umol/kg) was administered intraperitoneally to mice and was evaluated for MRT; assay type: functional, organism-based; design: dose 50 mg/kg
[13] = biological target: Receptor tyrosine-protein kinase erbB-2 (Homo sapiens, UniProt P04626); assay: Inhibition of HER2 kinase
[14] = Plasma clearance at a dose of 10 mg/kg intravenous administration in mice.; assay type: ADME, organism-based; design: dose 10 mg/kg, route intravenous; conditions: mouse
[15] = Cmax value at a dose of 10 mg/kg peroral administration in mice.; assay type: ADME, organism-based; design: dose 10 mg/kg, route oral; conditions: mouse, in vivo, po
[16] = Vss value at a dose of 10 mg/kg intravenous administration in mice.; assay type: ADME, organism-based; design: dose 10 mg/kg, route intravenous; conditions: mouse, in vivo, read-out: Vss
Homo sapiens [17] = organism: Homo sapiens; assay: Percent of serum binding in human; assay type: functional
Mus musculus [18] = assay: At a dose 50 mg/kg (114 umol/kg) was administered intraperitoneally to mice and was evaluated for area under curve (AUCtot); assay type: ADME, organism-based; design: time AUCmax, dose 50 mg/kg, route intraperitoneal; conditions: in vivo, ip
Homo sapiens [19] = organism: Homo sapiens; assay: Metabolic rate in human; assay type: ADME
[20] = Tmax value at a dose of 10 mg/kg intravenous administration in mice.; assay type: ADME, organism-based; design: dose 10 mg/kg, route intravenous; conditions: mouse, in vivo
[21] = At a dose 50 mg/kg (114 umol/kg) was administered intraperitoneally to mice and was evaluated for T max; assay type: ADME, organism-based; design: dose 50 mg/kg, route intraperitoneal; conditions: mouse, in vivo, ip
[22] = At a dose 50 mg/kg (114 umol/kg) was administered intraperitoneally to mice and was evaluated for half life (T1/2); assay type: ADME, organism-based; design: dose 50 mg/kg, route intraperitoneal; conditions: mouse, in vivo, ip
[23] = Tmax value at a dose of 10 mg/kg peroral administration in mice.; assay type: ADME, organism-based; design: dose 10 mg/kg, route oral; conditions: mouse, in vivo, po
[24] = biological target: T1, Tyrosine-protein kinase ITK/TSK (Homo sapiens, UniProt Q08881); assay: Inhibition of tyrosine kinase EMT
T1 sequence (Q08881 whole entry): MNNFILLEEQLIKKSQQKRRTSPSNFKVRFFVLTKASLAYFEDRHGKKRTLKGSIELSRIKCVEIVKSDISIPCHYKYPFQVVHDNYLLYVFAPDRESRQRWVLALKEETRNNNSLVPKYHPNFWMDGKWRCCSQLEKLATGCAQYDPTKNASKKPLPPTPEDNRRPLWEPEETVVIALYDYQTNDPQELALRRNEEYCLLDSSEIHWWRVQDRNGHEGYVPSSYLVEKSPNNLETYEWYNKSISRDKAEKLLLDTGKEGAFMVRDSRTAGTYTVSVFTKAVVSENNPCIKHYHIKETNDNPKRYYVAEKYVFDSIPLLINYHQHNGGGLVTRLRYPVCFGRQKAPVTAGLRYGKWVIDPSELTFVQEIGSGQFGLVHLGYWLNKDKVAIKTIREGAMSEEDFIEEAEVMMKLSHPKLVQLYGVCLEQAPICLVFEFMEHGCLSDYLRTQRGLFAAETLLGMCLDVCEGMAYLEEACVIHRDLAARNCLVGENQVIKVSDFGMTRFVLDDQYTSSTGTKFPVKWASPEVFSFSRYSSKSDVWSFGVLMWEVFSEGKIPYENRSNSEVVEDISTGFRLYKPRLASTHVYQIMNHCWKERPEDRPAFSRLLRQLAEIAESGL

[25] = Half life at a dose of 10 mg/kg intravenous administration in mice.; assay type: ADME, organism-based; design: dose 10 mg/kg, route intravenous; conditions: mouse, in vivo
Mus musculus [26] = assay: AUC total value at a dose of 10 mg/kg intravenous administration in mice.; assay type: ADME, organism-based, Plasma; design: dose 10 mg/kg, route intravenous; conditions: in vivo
[27] = Inhibition of I kappa-B kinase
[28] = MRT value at a dose of 10 mg/kg intravenous administration in mice.; assay type: ADME, organism-based; design: dose 10 mg/kg, route intravenous; conditions: mouse, in vivo
[29] = Inhibition of Insulin-like growth factor receptor
[30] = biological target: Protein kinase C zeta (Homo sapiens) (UniProt Q05513); assay: Inhibition of Protein kinase C zeta
[31] = Bioavailability at a dose of 10 mg/kg peroral administration in mice.; assay type: ADME, organism-based; conditions: mouse, in vivo, po, read-out: Bioavailabiility
P388 = assay: […] antitumor activity against P388 murine leukemia at 7.5 mg/kg i.p. /qd x7 and %T/C; assay type: functional, Mus musculus; conditions: route intraperitoneal
[32] = MRT value at a dose of 10 mg/kg peroral administration in mice.; assay type: ADME, organism-based; design: dose 10 mg/kg, route oral; conditions: mouse, in vivo, po
[33] = biological target: Protein kinase C epsilon type (Homo sapiens, UniProt Q02156); assay: Inhibition of Protein kinase C epsilon
[34] = biological target: Protein kinase C beta type (Homo sapiens, UniProt P05771); assay: Inhibition of Protein kinase C beta
[35] = biological target: Cyclin-dependent kinase 2 (Homo sapiens) (UniProt P24941); assay: Percentage A2780 cells in G2/M after 24 hr r at 29 nM (IC90); assay type: functional, cell-based
[36] = biological target: Cyclin-dependent kinase 2 (Homo sapiens) (UniProt P24941); assay: Percentage A2780 cells in G2/M after 24 hr r at 5 nM (IC50); assay type: functional, cell-based
[37] = biological target: Cyclin-dependent kinase 2 (Homo sapiens) (UniProt P24941); assay: Percentage A2780 cells in G1 after 24 hr r at 5 nM (IC50); assay type: functional, cell-based
[38] = biological target: Cyclin-dependent kinase 2 (Homo sapiens) (UniProt P24941); assay: Percentage A2780 cells in sub-G1 after 24 hr r at 29 nM (IC90)
[39] = as §1; assay type: ADME, organism-based; design: dose 50 mg/kg, route intraperitoneal; conditions: mouse, in vivo, ip
[40] = biological target: Cyclin-dependent kinase 2 (Homo sapiens) (UniProt P24941); assay: Apoptotic A2780 cells after 24 hr r at 29 nM (IC90); assay type: functional, cell-based
M109 = assay: Inhibition of M109 mouse lung carcinoma cell proliferation; assay type: functional, cell-based
[41] = biological target: Cyclin-dependent kinase 2 (Homo sapiens) (UniProt P24941); assay: Percentage A2780 cells in S-phase after 24 hr r at 5 nM (IC50); assay type: functional, cell-based
[42] = biological target: Cyclin-dependent kinase 2/cyclin E (Homo sapiens, UniProt P24941); assay: Inhibitory activity against baculovirus expressed Cyclin dependent kinase 2-cyclinE; assay type: protein-complex assay
MLF = assay: Inhibition of MLF mouse lung fibroblast cell proliferation; assay type: functional, cell-based
[43] = biological target: Cyclin-dependent kinase 2 (Homo sapiens) (UniProt P24941); assay: Percentage A2780 cells in sub-G1 after 24 hr r at 5 nM (IC50); assay type: functional, cell-based
[44] = biological target: Cyclin-dependent kinase 1/cyclin B (Homo sapiens, UniProt P06493); assay: Inhibitory activity against baculovirus expressed Cyclin dependent kinase 1-cyclinB; assay type: protein-complex assay
[45] = biological target: Cyclin-dependent kinase 2 (Homo sapiens) (UniProt P24941); assay: Apoptotic A2780 cells after 24 hr r at 5 nM (IC50); assay type: functional, cell-based
[46] = biological target: Cyclin-dependent kinase 2 (Homo sapiens) (UniProt P24941); assay: Percentage A2780 cells in G1 after 24 hr r at 29 nM (IC90); assay type: functional, cell-based
A2780 [47] = assay: cells; conditions: Homo sapiens
Description: Cytotoxic activity against A2780 human ovarian carcinoma cell line

[48] = biological target: Cyclin-dependent kinase 2 (Homo sapiens) (UniProt P24941); assay: Percentage A2780 cells in S-phase after 24 hr r at 29 nM (IC90); assay type: functional, cell-based
HS27 = assay: Inhibition of Hs 27 human fibroblast cell proliferation; assay type: functional, cell-based

Sequence of Cyclin-dependent kinase 4/cyclin D1 (P11802 whole entry): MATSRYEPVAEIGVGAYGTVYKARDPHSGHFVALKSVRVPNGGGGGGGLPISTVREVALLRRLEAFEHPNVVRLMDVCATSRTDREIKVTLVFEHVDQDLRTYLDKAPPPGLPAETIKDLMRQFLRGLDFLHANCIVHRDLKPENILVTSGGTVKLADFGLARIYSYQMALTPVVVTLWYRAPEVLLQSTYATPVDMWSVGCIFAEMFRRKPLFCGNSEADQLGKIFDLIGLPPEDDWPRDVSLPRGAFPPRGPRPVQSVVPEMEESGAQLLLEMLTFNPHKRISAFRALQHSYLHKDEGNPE
Sequence of Cyclin-dependent kinase 4/cyclin D1 (P24385 whole entry, further chain): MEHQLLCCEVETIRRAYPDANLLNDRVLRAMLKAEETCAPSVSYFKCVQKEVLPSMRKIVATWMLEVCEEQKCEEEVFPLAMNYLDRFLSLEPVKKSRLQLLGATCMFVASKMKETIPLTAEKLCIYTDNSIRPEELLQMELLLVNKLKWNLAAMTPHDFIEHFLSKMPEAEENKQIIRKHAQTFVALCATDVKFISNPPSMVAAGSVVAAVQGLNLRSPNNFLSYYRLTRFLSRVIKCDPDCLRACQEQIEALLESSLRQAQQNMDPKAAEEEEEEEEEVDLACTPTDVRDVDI
Sequence of Protein kinase C beta type (P05771 whole entry): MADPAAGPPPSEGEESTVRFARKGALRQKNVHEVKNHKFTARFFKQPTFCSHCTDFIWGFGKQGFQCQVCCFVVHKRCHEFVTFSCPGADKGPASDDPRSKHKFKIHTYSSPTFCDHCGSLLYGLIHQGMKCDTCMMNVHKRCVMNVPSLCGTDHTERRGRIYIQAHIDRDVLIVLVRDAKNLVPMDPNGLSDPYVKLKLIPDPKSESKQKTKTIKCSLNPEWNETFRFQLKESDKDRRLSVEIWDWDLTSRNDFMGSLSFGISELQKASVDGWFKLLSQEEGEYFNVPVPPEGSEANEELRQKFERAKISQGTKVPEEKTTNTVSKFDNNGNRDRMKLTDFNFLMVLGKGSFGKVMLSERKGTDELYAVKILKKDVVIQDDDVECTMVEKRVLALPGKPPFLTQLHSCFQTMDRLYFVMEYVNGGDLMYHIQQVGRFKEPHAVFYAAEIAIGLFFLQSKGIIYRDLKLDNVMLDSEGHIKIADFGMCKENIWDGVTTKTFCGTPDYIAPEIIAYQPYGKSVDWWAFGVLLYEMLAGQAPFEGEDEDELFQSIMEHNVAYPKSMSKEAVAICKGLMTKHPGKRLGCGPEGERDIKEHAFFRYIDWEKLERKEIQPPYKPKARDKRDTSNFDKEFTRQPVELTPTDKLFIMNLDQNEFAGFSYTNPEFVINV
Sequence of Protein kinase C delta type (Q05655 whole entry): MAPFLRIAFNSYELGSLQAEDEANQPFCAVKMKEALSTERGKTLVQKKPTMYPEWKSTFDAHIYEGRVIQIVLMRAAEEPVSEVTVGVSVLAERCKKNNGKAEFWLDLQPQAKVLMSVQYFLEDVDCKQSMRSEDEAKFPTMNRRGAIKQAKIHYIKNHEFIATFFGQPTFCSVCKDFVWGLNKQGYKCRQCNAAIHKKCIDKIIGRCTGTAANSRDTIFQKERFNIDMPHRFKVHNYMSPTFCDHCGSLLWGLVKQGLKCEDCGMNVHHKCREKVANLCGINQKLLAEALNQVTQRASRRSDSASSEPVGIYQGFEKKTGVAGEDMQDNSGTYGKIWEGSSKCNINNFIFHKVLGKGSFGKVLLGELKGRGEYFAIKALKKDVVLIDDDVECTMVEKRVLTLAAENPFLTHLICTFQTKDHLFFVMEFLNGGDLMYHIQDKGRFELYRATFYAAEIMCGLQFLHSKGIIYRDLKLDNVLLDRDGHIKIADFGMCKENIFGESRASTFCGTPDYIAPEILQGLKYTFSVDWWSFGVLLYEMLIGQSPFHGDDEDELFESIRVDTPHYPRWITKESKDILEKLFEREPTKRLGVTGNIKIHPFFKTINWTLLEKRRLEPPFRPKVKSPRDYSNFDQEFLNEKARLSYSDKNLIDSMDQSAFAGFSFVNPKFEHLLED
Sequence of Receptor tyrosine-protein kinase erbB-2 (P04626 whole entry): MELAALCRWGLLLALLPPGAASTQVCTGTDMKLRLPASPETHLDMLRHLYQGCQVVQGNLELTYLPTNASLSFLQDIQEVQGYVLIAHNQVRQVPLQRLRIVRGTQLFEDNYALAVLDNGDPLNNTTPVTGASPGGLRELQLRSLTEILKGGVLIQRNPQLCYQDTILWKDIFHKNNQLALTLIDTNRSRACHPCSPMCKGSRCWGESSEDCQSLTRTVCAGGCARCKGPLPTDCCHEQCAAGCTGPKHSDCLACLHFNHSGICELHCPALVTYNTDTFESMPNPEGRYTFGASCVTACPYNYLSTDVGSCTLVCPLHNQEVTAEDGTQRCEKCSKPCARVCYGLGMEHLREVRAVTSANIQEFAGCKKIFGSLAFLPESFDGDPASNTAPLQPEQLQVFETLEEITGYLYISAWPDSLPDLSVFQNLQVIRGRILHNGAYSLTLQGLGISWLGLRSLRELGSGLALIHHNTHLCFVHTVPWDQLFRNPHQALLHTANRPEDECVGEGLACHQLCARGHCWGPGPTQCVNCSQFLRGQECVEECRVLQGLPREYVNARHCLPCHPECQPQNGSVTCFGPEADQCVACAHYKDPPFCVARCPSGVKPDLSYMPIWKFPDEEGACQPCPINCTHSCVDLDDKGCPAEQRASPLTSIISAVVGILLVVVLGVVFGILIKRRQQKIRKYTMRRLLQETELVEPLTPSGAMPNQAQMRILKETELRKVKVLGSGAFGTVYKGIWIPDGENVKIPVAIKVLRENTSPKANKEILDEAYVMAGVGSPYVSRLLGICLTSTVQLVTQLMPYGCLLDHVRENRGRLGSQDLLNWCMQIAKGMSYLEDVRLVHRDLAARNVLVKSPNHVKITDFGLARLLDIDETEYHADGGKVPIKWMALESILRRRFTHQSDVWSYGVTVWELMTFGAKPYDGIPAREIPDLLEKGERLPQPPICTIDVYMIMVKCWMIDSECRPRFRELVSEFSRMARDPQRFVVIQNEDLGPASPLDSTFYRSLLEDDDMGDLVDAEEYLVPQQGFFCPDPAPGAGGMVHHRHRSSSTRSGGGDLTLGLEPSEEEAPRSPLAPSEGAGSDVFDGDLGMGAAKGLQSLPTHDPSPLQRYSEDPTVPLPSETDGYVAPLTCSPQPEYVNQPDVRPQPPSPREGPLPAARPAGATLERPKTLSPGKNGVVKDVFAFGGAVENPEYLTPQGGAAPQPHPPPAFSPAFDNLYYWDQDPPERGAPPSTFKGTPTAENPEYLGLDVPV
Sequence of Tyrosine-protein kinase ZAP-70 (P43403 whole entry): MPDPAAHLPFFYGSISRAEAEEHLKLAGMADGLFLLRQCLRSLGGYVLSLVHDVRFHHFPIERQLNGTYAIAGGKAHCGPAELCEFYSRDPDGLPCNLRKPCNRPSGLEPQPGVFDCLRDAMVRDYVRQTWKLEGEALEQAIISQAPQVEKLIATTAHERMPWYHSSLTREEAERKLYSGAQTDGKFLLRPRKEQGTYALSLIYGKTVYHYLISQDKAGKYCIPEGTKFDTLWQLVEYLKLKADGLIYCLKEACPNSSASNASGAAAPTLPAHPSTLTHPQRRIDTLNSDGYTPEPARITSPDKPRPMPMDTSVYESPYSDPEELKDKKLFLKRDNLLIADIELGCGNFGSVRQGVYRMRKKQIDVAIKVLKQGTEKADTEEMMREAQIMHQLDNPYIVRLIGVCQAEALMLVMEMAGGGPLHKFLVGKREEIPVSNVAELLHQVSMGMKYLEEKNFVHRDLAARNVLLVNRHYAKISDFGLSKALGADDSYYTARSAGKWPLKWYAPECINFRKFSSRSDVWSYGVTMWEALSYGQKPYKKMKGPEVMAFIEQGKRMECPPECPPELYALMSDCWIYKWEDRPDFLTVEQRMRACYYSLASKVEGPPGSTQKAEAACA

`CC(C)(C)c1cnc(CSc2cnc(NC(=O)Cc3ccc(CNC(CO)CO)cc3)s2)o1` showed a Cmax [1] of 8.27 µM, an Activity (Mus musculus [2]) of 79% and a Cmax [3] of 0.8 µM. For the same molecule, the Rate (Mus musculus [4]) was 0.22 nM min-1 (mg of protein)-1, the LCK (A2780 [5]) was 3.3 and the IC50 [6] was 45 µM. The half-life [7] was 1.4 h, the IC50 [8] was 0.1 µM and the IC50 [9] was > 45 µM. The IC50 [10] was > 50 µM, the AUC total (Mus musculus [11]) was 1.2 µM·h and the MRT (Mus musculus [12]) was 2.9 h. The IC50 [13] was > 25 µM, the clearance [14] was 67 mL/min/kg and the Cmax [15] was 0.635 µM. For the same molecule, the Vd [16] was 6.9 L/kg, the Activity (Homo sapiens [17]) was 78% and the AUC total (Mus musculus [18]) was 2.7 µM·h. For the same molecule, the Rate (Homo sapiens [19]) was 0.21 nM min-1 (mg of protein)-1, the Tmax [20] was 4.8 min and the Tmax [21] was 1 h. The half-life [22] was 1.8 h, the Tmax [23] was 0.33 h and the IC50 [24] was 29 µM. The half-life [25] was 2.2 h, the AUC total (Mus musculus [26]) was 4.98 µM·h and the IC50 [27] was 28 µM. It also gave an MRT [28] of 1.8 h, an IC50 [29] of 24 µM and an IC50 [30] of 35 µM. The bioavailability [31] was 24%, the T/C (P388) was 140% and the MRT [32] was 4.1 h. For the same molecule, the IC50 [33] was 5.6 µM and the IC50 [34] was > 45 µM.
Work on `CCc1cnc(CSc2cnc(NC(=O)Cc3cccnc3)s2)o1` yielded a Cell cycle [35] of 18%, a Cell cycle [36] of 20% and a Cell cycle [37] of 71%. It also gave a Cmax [3] of 40 µM, a Cell cycle [38] of 25% and an LCK (A2780 [5]) of 0.4. The IC50 [8] was 1.09 µM, the MRT [39] was 0.8 h and the Cell cycle [40] was 69%. The IC50 (M109) was 2.1 µM, the Activity (Homo sapiens [17]) was 82% and the Cell cycle [41] was 7%. It also gave an AUC (Mus musculus [18]) of 23 µM·h, an IC50 [42] of 0.005 µM and an IC50 (MLF) of 1.86 µM. The Cell cycle [43] was 2%, the IC50 [44] was 0.08 µM and the Tmax [21] was 0.5 h. It also gave a Cell cycle [45] of 4%, a Cell cycle [46] of 50% and a half-life [22] of 1.1 h. The IC50 (A2780 [47]) was 0.24 µM, the Cell cycle [48] was 7% and the T/C (P388) was 115%. For the same molecule, the IC50 (HS27) was 0.86 µM.
